Here are results for eight compounds from PubChem BioAssay AID1259411 (Chemical Carcinogenesis Research Information System (CCRIS), 2018).

In the data set the test system is rodent carcinogenicity bioassays, tumor incidence. As to the kind of experiment: CCRIS carcinogenicity studies. Summed up: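 NCI-built, expert-reviewed records of carcinogenicity and related test outcomes (mutagenicity, tumor promotion/inhibition) compiled from published and report sources, historical span 1985-2011, not updated.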

Active and inactive are the calls of the source. The rule behind the calls is not given here.

In the case of `Nc1cc(Cl)c(N)c(Cl)c1`, the carcinogen call (Species: MOUSE, Strain/Sex: B6C3F1/FEMALE, Route: ORAL, Dose: 0, 1000, 3000 PPM IN DIET, Dose: 0, 1000, 3000 PPM IN DIET, Tumor Site: Type of Lesion: LIVER: HEPATOCELLULAR ADENOMA OR CARCINOMA) is “active; positive”; the carcinogen call (Species: MOUSE, Strain/Sex: B6C3F1/MALE, Route: ORAL, Dose: 0, 1000, 3000 PPM IN DIET, Dose: 0, 1000, 3000 PPM IN DIET, Tumor Site: Type of Lesion: LIVER: HEPATOCELLULAR ADENOMA OR CARCINOMA) was “active; positive”; the carcinogen call (Species: RAT, Strain/Sex: F344/FEMALE, Route: ORAL, Dose: 0, 2000, 6000 PPM IN DIET, Dose: 0, 2000, 6000 PPM IN DIET) is “inactive; negative”; the carcinogen call (Species: RAT, Strain/Sex: F344/MALE, Route: ORAL, Dose: 0, 1000, 2000 PPM IN DIET, Dose: 0, 1000, 2000 PPM IN DIET) is “inactive; negative”.

Take `ClCCN(CCCl)c1ccc2ccccc2c1`: the carcinogen call (Species: HUMAN, Route: ORAL, Tumor Site: Type of Lesion: URINARY BLADDER) was “active; positive”; the carcinogen call (Species: MOUSE, Strain/Sex: STRAIN-A, Route: INTRAPERITONEAL, Dose: 75, 300, 1200, 4800 MG/KG IN 12 DOSES OVER 4 WK, Dose: 75, 300, 1200, 4800 MG/KG IN 12 DOSES OVER 4 WK, Tumor Site: Type of Lesion: LUNG: ADENOMA) is “active; positive”; the carcinogen call (Species: RAT, Route: SUBCUTANEOUS, Dose: 40 MG IN REPEATED DOSES, Tumor Site: Type of Lesion: INJECTION SITE) is “active; positive”.

As for `CCOC(=O)C(C)(C)Oc1ccc(Cl)cc1`, the carcinogen call is, setting by setting: (Species: MOUSE, Strain/Sex: CD-1/MALE,FEMALE (NEONATAL) (24-28/GROUP), Route: ORAL (GAVAGE), Dose: 0, 100, 350, 500 MG/KG BW ON D 9 AND 16 OF LIFE (STUDY DURATION: 1 YR)) “inactive; negative”; (Species: Mouse, Strain/Sex: Nontransgenic rasH2/Female (15/group), Route: Oral, Dose: 0, 250 mg/kg/day (Test material solvent: 0.5% (w/w) hydroxymethylcellulose in water), daily, by gavage for 27 wk, study, Dose: 0, 250 mg/kg/day (Test material solvent: 0.5% (w/w) hydroxymethylcellulose in water), daily, by gavage for 27 wk, study) “inactive; negative (slight increase in incidence of various neoplasms (harderian gland, lu”; (Species: Mouse, Strain/Sex: Nontransgenic rasH2/Male (15/group), Route: Oral, Dose: 0, 200 mg/kg/day (Test material solvent: 0.5% (w/w) hydroxymethylcellulose in water), daily, by gavage for 27 wk, study, Dose: 0, 200 mg/kg/day (Test material solvent: 0.5% (w/w) hydroxymethylcellulose in water), daily, by gavage for 27 wk, study, Tumor Site: Type of Lesion: Liver) “inactive; negative (hepatocellular neoplasms observed in matched study of male transgenic”; (Species: RAT, Strain/Sex: F344/MALE, Route: ORAL, Dose: 0.5% IN DIET FOR UP TO 28 MO, Tumor Site: Type of Lesion: LIVER: HEPATOCELLULAR CARCINOMA) “active; positive”; (Species: RAT, Strain/Sex: SPRAGUE-DAWLEY/MALE,FEMALE, Route: ORAL, Dose: 1500, 4500, 9000 PPM IN DIET, Dose: 1500, 4500, 9000 PPM IN DIET, Tumor Site: Type of Lesion: LIVER) “active; positive”.

For `[O-]/[N+](=N\O)c1ccccc1`, the carcinogen call by setting is: (Species: MOUSE, Strain/Sex: B6C3F1/FEMALE, Route: ORAL, Dose: 0, 0.2, 0.4% TWA, IN DIET FOR 78 WK (STUDY DURATION: 95-98 WK), Dose: 0, 0.2, 0.4% TWA, IN DIET FOR 78 WK (STUDY DURATION: 95-98 WK), Tumor Site: Type of Lesion: CIRCULATORY SYSTEM: HEMANGIOSARCOMA OR HEMANGIOMA, LIVER: HEPATOCELLULAR CARCINOMA, HEPATOCELLULAR ADENOMA OR CARCINOMA;, Tumor Site: Type of Lesion: CIRCULATORY SYSTEM: HEMANGIOSARCOMA OR HEMANGIOMA, LIVER: HEPATOCELLULAR CARCINOMA, HEPATOCELLULAR ADENOMA OR CARCINOMA) “active; positive”; (Species: MOUSE, Strain/Sex: B6C3F1/MALE, Route: ORAL, Dose: 0, 0.2, 0.4% TWA, IN DIET FOR 78 WK (STUDY DURATION: 95-98 WK), Dose: 0, 0.2, 0.4% TWA, IN DIET FOR 78 WK (STUDY DURATION: 95-98 WK), Tumor Site: Type of Lesion: CIRCULATORY SYSTEM: HEMANGIOSARCOMA) “active; positive”; (Species: RAT, Strain/Sex: F344/FEMALE, Route: ORAL, Dose: 0, 0.15, 0.30% IN DIET FOR 78 WK (STUDY DURATION: 106-110 WK), Dose: 0, 0.15, 0.30% IN DIET FOR 78 WK (STUDY DURATION: 106-110 WK), Tumor Site: Type of Lesion: CIRCULATORY SYSTEM: HEMANGIOSARCOMA, LIVER: HEPATOCELLULAR CARCINOMA, HEPATOCELLULAR CARCINOMA OR NEOPLASTIC NODULE, STO, Tumor Site: Type of Lesion: CIRCULATORY SYSTEM: HEMANGIOSARCOMA, LIVER: HEPATOCELLULAR CARCINOMA, HEPATOCELLULAR CARCINOMA OR NEOPLASTIC NODULE, STO) “active; positive”; (Species: RAT, Strain/Sex: F344/MALE, Route: ORAL, Dose: 0, 0.15, 0.30% IN DIET FOR 78 WK (STUDY DURATION: 97-110 WK), Dose: 0, 0.15, 0.30% IN DIET FOR 78 WK (STUDY DURATION: 97-110 WK), Tumor Site: Type of Lesion: CIRCULATORY SYSTEM: HEMANGIOSARCOMA, LIVER: HEPATOCELLULAR CARCINOMA OR NEOPLASTIC NODULE, STOMACH: SQUAMOUS CELL CARCIN, Tumor Site: Type of Lesion: CIRCULATORY SYSTEM: HEMANGIOSARCOMA, LIVER: HEPATOCELLULAR CARCINOMA OR NEOPLASTIC NODULE, STOMACH: SQUAMOUS CELL CARCIN) “active; positive”.

`CCO[Si](CCC1CCC2OC2C1)(OCC)OCC` (centres undefined): the carcinogen call (Species: MOUSE, Strain/Sex: C3H/MALE, Route: DERMAL, Dose: 0, 2 MG IN ACETONE 3/WK FOR DURATION OF STUDY (STUDY DURATION: LIFETIME)) was “inactive; negative”.

As to `CC1(C)[C@H](C(=O)O[C@H](C#N)c2cccc(Oc3ccccc3)c2)[C@@H]1C(Br)C(Br)(Br)Br` (some centres undefined), the carcinogen call was “inactive; negative” (Species: Mouse, Strain/Sex: Not reported by DPR/Female (60-80/Group), Route: Gavage, Dose: 0, 0.75, 3.0, 10.0 mg/kg/day in corn oil for 104 wk, Dose: 0, 0.75, 3.0, 10.0 mg/kg/day in corn oil for 104 wk); “inactive; negative” (Species: Mouse, Strain/Sex: Not reported by DPR/Male (60-80/Group), Route: Gavage, Dose: 0, 0.75, 3.0, 10.0 mg/kg/day in corn oil for 104 wk, Dose: 0, 0.75, 3.0, 10.0 mg/kg/day in corn oil for 104 wk); “inactive; negative” (Species: Rat, Strain/Sex: Not reported by DPR/Female (60-80/Group), Route: Gavage, Dose: 0, 0.75, 3.0, 12.0 mg/kg/day in corn oil for 104 wk, Dose: 0, 0.75, 3.0, 12.0 mg/kg/day in corn oil for 104 wk); “inactive; negative” (Species: Rat, Strain/Sex: Not reported by DPR/Male (60-80/Group), Route: Gavage, Dose: 0, 0.75, 3.0, 12.0 mg/kg/day in corn oil for 104 wk, Dose: 0, 0.75, 3.0, 12.0 mg/kg/day in corn oil for 104 wk).

For the compound `OC[C@@H](O)[C@@H](O)CO`, the carcinogen call is, setting by setting: (Species: DOG, Strain/Sex: BEAGLE/FEMALE, Route: ORAL, Dose: 0, 2, 5, 10% IN DIET FOR 53 WK (STUDY DURATION: 53 WK), Dose: 0, 2, 5, 10% IN DIET FOR 53 WK (STUDY DURATION: 53 WK)) “inactive; negative”; (Species: DOG, Strain/Sex: BEAGLE/MALE, Route: ORAL, Dose: 0, 2, 5, 10% IN DIET FOR 53 WK (STUDY DURATION: 53 WK), Dose: 0, 2, 5, 10% IN DIET FOR 53 WK (STUDY DURATION: 53 WK)) “inactive; negative”; (Species: RAT, Strain/Sex: WISTAR/FEMALE, Route: ORAL, Dose: 0, 2, 5, 10% IN DIET FOR 104 WK (STUDY DURATION: 104 WK), Dose: 0, 2, 5, 10% IN DIET FOR 104 WK (STUDY DURATION: 104 WK)) “inactive; negative”; (Species: RAT, Strain/Sex: WISTAR/MALE, Route: ORAL, Dose: 0, 2, 5, 10% IN DIET FOR 104 WK (STUDY DURATION: 104 WK), Dose: 0, 2, 5, 10% IN DIET FOR 104 WK (STUDY DURATION: 104 WK)) “inactive; negative”.

With `Oc1ccc2ccccc2c1N=Nc1ccccc1`, the carcinogen call is, setting by setting: (Species: MOUSE, Route: SUBCUTANEOUS, Tumor Site: Type of Lesion: LIVER) “active; positive”; (Species: MOUSE, Strain/Sex: B6C3F1/MALE, Route: ORAL, Dose: 0, 500, 1000 PPM IN DIET, Dose: 0, 500, 1000 PPM IN DIET) “inactive; negative”; (Species: RAT, Strain/Sex: F344/FEMALE, Route: ORAL, Dose: 0, 250, 500 PPM IN DIET, Dose: 0, 250, 500 PPM IN DIET, Tumor Site: Type of Lesion: LIVER: NEOPLASTIC NODULE) “active; positive”; (Species: RAT, Strain/Sex: F344/MALE, Route: ORAL, Dose: O, 250, 500 PPM IN DIET, Dose: O, 250, 500 PPM IN DIET, Tumor Site: Type of Lesion: LIVER: NEOPLASTIC NODULE) “active; positive”.
